Where two headings read alike, the source gives them in different places.
Legend:
Wistar rat paw's edema = Wistar rat paw's edema induced by carragenin; assay type: in vivo; conditions: oral; dosage of 44 mg/kg (example 2), 130 mg/Kg (example 3), 182 mg/Kg (example 1)
Procedure: 14, p. 2589-99, 2006); ÖZTÜRK, G. et al. (ÖZTÜRK, G. et al. “New analgesic and antiinflammatory agents 4(1H)-pyridinone derivatives”, Europe Journal Medicinal Chemistry, v. 37, n. 10 p. 829-34, 2002); LOLLI, et al. (LOLLI, et al. “A new class of ibuprofen derivatives with reduced gastrotoxicity”, Journal of Medicinal Chemistry, v. 44, p. 3463-68, 2001). Besides these, a paw's edema test was performed using taurine as control of its derived compounds, in the dosage of 10 mg/Kg according to HIRATA, T. et al. (HIRATA, T. et al. “Cyclo-oxygenase isozymes in mucosal ulcergenic and functional responses following barrier disruption in rat stomachs”, British Journal of Pharmacology, v. 122, p. 447-54, 1997).
In order to confirm the biological activity of the compounds of the present invention, tests were performed according to the pharmacological model of Wistar rat paw's edema using groups of six animals. It was verified that, in the reported concentrations, in the presence of equimolar dosages of the compounds described in the articles above-mentioned, such as referral drugs, a reduction of the inflammatory process with the use of the compounds of the invention was observed.
The compounds of the present invention were administered 1 (one) hour prior the inoculation of the irritant agent carragenin in the paws of the animals, with the aid of a gavage tube, orally, using water as solvent.
The control group had the irritant agent carragenin applied to the bottom of their posterior paws and, orally, saline solution. […] Other groups of animals had the taurine derived of the present invention (embodiments corresponding to Examples 1, 2 and 3, respectively—orally) administered 60 minutes prior to the carragenin (bottom of the paw).
The posterior paws were measured prior to the treatments and at each hour, for 6 hours after the carragenin was administered, using an thickness meter, in order to measure their volume (in mm). The results were expressed by the difference between the paw's measurement readings before and after the treatments.

gastric mucous membrane = assay: Gastric ulcerogenesis (gastric ulcerogenesis index, G.U.I.); assay type: in vivo; conditions: for alterations / color of the gastric mucous membrane: same animals as paw's edema model; for lesion index (gastric ulcerogenesis index): stomach 6 hours after paw readings, macroscopic and microscopic (640x)
Procedure: Gastric ulcerogenesis was verified in the same animals of the groups used for the model of paw's edema.
After 6 hours of the paw's measurement readings, the animals were subjected to euthanasia in CO2, and had their stomach removed, cut open in the longitudinal axis and washed with saline solution. In all experiments, the groups were composed of 6 animals, being kept the desired therapeutic activity, with absence of gastric lesions, and after the LD50 assays, it was concluded that the taurine derived compounds of the present invention are safe. It is worth observing, still, that other organs, such as lungs and intestine, as well as the macroscopic integrity of the other organs were kept preserved.
Through mucous membrane exposition, it was observed its color and integrity. In the case of lesions existence, they were counted and measured, according to the gastric ulcerogenesis index (G.U.I.) that follows numeric criteria for classification of lesions of the gastric mucous membrane: (lesions<1 mm=1; […]; 2.5 to 3.5 mm=3; 3.5 to 4.5 mm=4 and >4.5 mm=5). The obtained results were reported as averages±E. P. M. The results of the lesion experiment regarding the administration of the compounds of the present invention (embodiments corresponding to the Examples 1, 2 and 3) were neither macroscopically nor microscopically (640×) observed, being reported as lesion index of 0 (zero) value.

Wistar female rats = conditions: for survival: dosage of 1,000 mg/Kg
Procedure: Wistar female rats weighting between 200 and 250 g were used. […] To all studied groups, dosages of 1,000 and, alternatively, of 1,500 mg/kg were administered by gavage feeding.
After fourteen (14) days of administration and observation regarding the toxicity signs of general kind, effects on motion, behavior, breathing, number of deaths and form of occurrence, the animals that have survived were subjected to euthanasia in CO2 and had their organs such as heart, lungs, kidney, liver and stomach removed and weighted. For the analysis of the results were also considered the body weights.

[1] = oral administration; literature (Merck Index); cited from earlier work
gastric ulceration = conditions: pre clinic tests; cited from earlier work
iNOS = target: T1, iNOS (Homo sapiens, UniProt P35228); assay: nitric oxide production by macrophages stimulated with LPS, indirect nitrite (NO2-) detection; assay type: cell-based; conditions: 24 hours
T1 construct: The assay used the maximum production of nitric oxide (macrophages stimulated with LPS); endogenous in cells

[2] = system: isolated gastric mucosal cells; conditions: cited from earlier work
gastric mucosal injury = conditions: rats pre-treated intragastrically with 250 or 500 mg/kg 1 to 3 days before 25 mg/kg indometacin; cited from earlier work

T1 sequence (P35228 whole entry, species assumed): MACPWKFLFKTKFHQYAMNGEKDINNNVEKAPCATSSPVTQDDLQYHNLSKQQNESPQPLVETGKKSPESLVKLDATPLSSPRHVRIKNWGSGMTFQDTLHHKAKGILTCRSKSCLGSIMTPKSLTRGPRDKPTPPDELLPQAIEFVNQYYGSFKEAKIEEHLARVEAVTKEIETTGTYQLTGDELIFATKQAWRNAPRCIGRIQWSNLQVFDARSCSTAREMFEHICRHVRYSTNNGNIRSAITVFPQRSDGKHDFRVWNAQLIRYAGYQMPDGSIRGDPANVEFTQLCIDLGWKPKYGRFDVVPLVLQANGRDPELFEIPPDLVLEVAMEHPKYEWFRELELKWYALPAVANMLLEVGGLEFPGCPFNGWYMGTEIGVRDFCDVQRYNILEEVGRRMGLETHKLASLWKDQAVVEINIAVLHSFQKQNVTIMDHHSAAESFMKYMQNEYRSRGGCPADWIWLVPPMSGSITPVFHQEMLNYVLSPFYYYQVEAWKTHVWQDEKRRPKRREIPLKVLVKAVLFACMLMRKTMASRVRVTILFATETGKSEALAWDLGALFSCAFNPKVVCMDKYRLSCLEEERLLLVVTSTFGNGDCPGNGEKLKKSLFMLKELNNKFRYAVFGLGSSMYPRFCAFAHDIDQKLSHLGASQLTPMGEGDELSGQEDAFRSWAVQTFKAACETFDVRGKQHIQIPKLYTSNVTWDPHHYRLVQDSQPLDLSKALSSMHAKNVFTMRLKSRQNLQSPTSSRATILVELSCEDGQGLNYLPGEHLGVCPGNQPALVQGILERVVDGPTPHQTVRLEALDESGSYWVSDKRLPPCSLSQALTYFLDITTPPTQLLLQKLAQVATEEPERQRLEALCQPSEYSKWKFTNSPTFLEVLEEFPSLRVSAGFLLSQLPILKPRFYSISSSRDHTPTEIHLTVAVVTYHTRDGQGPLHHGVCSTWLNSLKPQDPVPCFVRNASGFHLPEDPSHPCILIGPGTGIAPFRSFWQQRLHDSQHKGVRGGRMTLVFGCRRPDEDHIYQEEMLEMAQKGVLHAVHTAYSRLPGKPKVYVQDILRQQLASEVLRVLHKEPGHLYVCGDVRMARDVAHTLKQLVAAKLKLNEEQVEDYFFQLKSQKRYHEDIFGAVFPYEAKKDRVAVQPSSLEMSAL

CC(C)Cc1ccc(C(C)C(=O)NCCS(=O)(=O)[O-])cc1.[Na+] (stereo not shown) [Compound 27, [2-(4-isobuthylphenyl)propanoyl]amide ethanesulfonic acid]
anti inflammatory activity in paw's edema (Wistar rat paw's edema): anti inflammatory activity | alterations / color of the gastric mucous membrane (gastric mucous membrane): did not present any color alteration in the mucous membrane | alterations / color of the gastric mucous membrane (gastric mucous membrane; listed as Example 1): not observed alterations in the mucous membrane | lesion index (gastric ulcerogenesis index) (gastric mucous membrane): 0 | deaths (Wistar female rats; any of the tested dosages (1,000 and 1,500 mg/kg), gavage): no death in any of the tested dosages | LD50 [1]: 1,050 mg/Kg

COc1ccc2cc(C(C)C(=O)NCCS(=O)(=O)[O-])ccc2c1.[Na+] (stereo not shown) [Compound 63, 2-{[2-(6-methoxy-2-naphthyl)propanoyl]amide}ethanesulfonic acid]
anti inflammatory activity in paw's edema (Wistar rat paw's edema): anti inflammatory activity | alterations / color of the gastric mucous membrane (gastric mucous membrane): not observed alterations in the mucous membrane | lesion index (gastric ulcerogenesis index) (gastric mucous membrane): 0 | survival (Wistar female rats; gavage): all animals survived | deaths (Wistar female rats; dosage of 1,500 mg/Kg, gavage): 17% | LD50 [1]: 1,234 mg/Kg

COc1ccc2c(c1)c(CC(=O)NCCS(=O)(=O)[O-])c(C)n2C(=O)c1ccc(Cl)cc1.[Na+] [Compound 64]
anti inflammatory activity in paw's edema (Wistar rat paw's edema): anti inflammatory activity | alterations / color of the gastric mucous membrane (gastric mucous membrane): not observed alterations in the mucous membrane | lesion index (gastric ulcerogenesis index) (gastric mucous membrane): 0 | weight of the organs (kidney, heart and liver) versus control animals (Wistar female rats; after the toxicity assay, 14 days): substantially close of those obtained with the control animals | survival (Wistar female rats; gavage): no animal has died | population survived (Wistar female rats; dosage of 1,500 mg/Kg, gavage): 66%

COC(=O)[C@@H](N)CCCNC(=N)N[N+](=O)[O-] [L-NAME, N^G-nitro-L-arginine methyl esther]
change in gastric acidity (gastric ulceration): does not affect gastric acidity | lesion rate (gastric ulceration): doubles | reduction of nitric oxide (measured as nitrite) (gastric ulceration): 50%

N=C(N)NN [aminoguanidine]
inhibition of nitric oxide production (NOS inhibition activity) (iNOS): total inhibition of nitric oxide production

CC(C)Cc1ccc(C(C)C(=O)O)cc1 (stereo not shown) [ibuprophen, reference compound]
alterations / color of the gastric mucous membrane (gastric mucous membrane): color alteration of the mucous membrane

NCCS(=O)(=O)O [taurine, 2-aminoethanesulfonic acid]
increase of cellular resistance [2]: 21% | hemorrhagic gastric lesion (gastric mucosal injury): lesion reduction
